Activity calls are given as the source filed them. No cut-off for these calls is given here.
Experiments:
Assay type in all cases: functional
Platelet [1] = assay: (§1) Anti-platelet activity in rat platelet rich plasma assessed as inhibition of ADP and calcium-induced platelet aggregation at 100 uM pre-incubated at 37 degC for 10 mins and measured 30 mins after ADP and calcium addition
[2] = as §1
Platelet [3] = assay: Potency index, ratio of anti-platelet activity for aspirin to test compound in rat platelet rich plasma
[4] = Anti-platelet activity in rat platelet rich plasma assessed as inhibition of ADP and calcium-induced platelet aggregation incubated at 37 degC for 10 mins and measured 30 mins after ADP and calcium addition
[5] = Anti-platelet activity in rat platelet rich plasma assessed as inhibition of ADP and calcium-induced platelet aggregation at 1650 uM incubated at 37 degC for 10 mins and measured 30 mins after ADP and calcium addition

Structure (SMILES) | inhibition (Platelet [1]) | inhibition at 100 µM [2] [%] | further results
COc1c(-c2ccc(O)c(O)c2)oc2cc(O)cc(O)c2c1=O | inactive | – | –
COC(=O)c1cc(O)c(O)c(O)c1 [GALLIC ACID METHYL ESTER] | – | 16.2 | –
C[C@@H]1O[C@@H](Oc2c(-c3ccc(O)c(O)c3)oc3cc(O)cc(O)c3c2=O)[C@H](O)[C@H](O)[C@H]1O [QUERCITRIN] | – | 2.13 | –
COc1c(-c2ccc(O)c(O)c2)oc2cc(O)ccc2c1=O | inactive | – | –
C[C@@H]1O[C@@H](Oc2cc(O)c3c(=O)cc(-c4cc(O)c(O)c(O)c4)oc3c2)[C@H](O)[C@H](O)[C@H]1O | – | 41.3 | –
O=c1c(O)c(-c2ccc(O)c(O)c2)oc2cc(O)cc(O)c12 [QUERCETIN] | – | 16.8 | –
O=c1cc(-c2ccc(O)c(O)c2)oc2cc(O)ccc12 | – | 13.7 | –
COc1cc(O[C@@H]2O[C@H](COC(=O)c3cc(O)c(O)c(O)c3)[C@@H](O)[C@H](O)[C@H]2O)cc(O)c1OC | inactive | – | –
COc1cc(C(=O)O)cc(OC)c1O | inactive | – | –
COc1c(C)c(O)c2c(=O)c(O)c(-c3ccc(O)cc3)oc2c1C | inactive | – | –
O=c1c(O[C@@H]2O[C@H](CO)[C@H](O)[C@H](O)[C@H]2O)c(-c2ccc(O)c(O)c2)oc2cc(O)cc(O)c12 [HYPEROSIDE] | – | 35.2 | –
COc1cc(-c2cc(=O)c3c(O)cc(O)cc3o2)ccc1O [CHRYSOERIOL] | – | 92.3 | Ratio (Platelet [3]): 2; IC50 [4]: 27.1 µM
O=c1ccoc2cc(O)cc(O)c12 | – | 6.83 | –
O=C(O)/C=C/c1ccccc1 [CINNAMIC ACID] | – | 8.69 | –
Cc1c(O)cc2oc(-c3ccc(O)cc3)c(O)c(=O)c2c1O | – | 26 | –
O=C(O)c1cc(O)c(O)c(O)c1 | inactive | – | –
COc1cc(-c2oc3cc(O)cc(O)c3c(=O)c2O)ccc1O | inactive | – | –
COc1ccc(C(=O)O)cc1O | inactive | – | –
O=c1c(O[C@@H]2O[C@H](CO)[C@@H](O)[C@H](O)[C@H]2O)c(-c2ccc(O)c(O)c2)oc2cc(O)cc(O)c12 [ISOQUERCETIN] | – | 36.2 | –
O=C1C[C@@H](c2ccc(O)c(O)c2)Oc2cc(O)cc(O)c21 [ERIODICTYOL] | – | 24.5 | –
Oc1cc(O)c2c(c1)O[C@H](c1ccc(O)c(O)c1)[C@@H](O)C2 [CIANIDANOL] | – | 35.1 | –
O=c1cc(-c2ccc(O)c(O)c2)oc2cc(O)cc(O)c12 [LUTEOLIN] | – | 26.6 | –
C[C@H]1O[C@@H](Oc2c(-c3cc(O)c(O)c(O)c3)oc3cc(O)cc(O)c3c2=O)[C@@H](O)[C@@H](O)[C@@H]1O | inactive | – | –
COc1cc(O[C@@H]2O[C@H](COC(=O)c3cc(O)c(O)c(O)c3)[C@@H](O)[C@H](O)[C@H]2O)ccc1O | – | 22.1 | –
CC(=O)Oc1ccccc1C(=O)O [ASPIRIN] | – | – | inhibition at 1650 µM [5]: 41.5%
Cc1c(O)c(C)c2c(c1O)C(=O)C[C@@H](c1ccc(O)cc1)O2 | inactive | – | –
O=c1c(O)c(-c2ccc(O)cc2)oc2cc(O)cc(O)c12 | inactive | – | –
COc1c(O)cc(C=O)cc1O | – | 20.8 | –
O=c1c(O[C@@H]2OC[C@H](O)[C@H](O)[C@H]2O)c(-c2ccc(O)c(O)c2)oc2cc(O)cc(O)c12 [GUAJAVERIN] | – | 7.29 | –
O=C(O)c1ccc(O)c(O)c1 | inactive | – | –

— ChEMBL document CHEMBL3603760, “Potential therapeutic agents for circulatory diseases from Bauhinia glauca Benth.subsp. pernervosa. (Da Ye Guan Men)” (Bioorg Med Chem Lett, 2015)
